Results: the supplement of paper PMC11821682

Key:
Danio rerio embryo = experiment: BMC10 any morphological effect or mortality at 120 hpf; higher = less toxic
HL-60 = experiment: Cell Health Index (toxicity pseudo-probability over dose series) (index 0-1); higher = more cytotoxic / cell stress;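 further: HL-60 cells exposed 4 h at 37 °C to ten threefold dilutions spanning 5 nM to 100 µM, multiparametric flow cytometry features scored by machine-learning classification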

Row | Compound | BMC10 any morphological effect or mortality (Danio rerio embryo) | Cell Health Index (HL-60)
1 | O=C(O)[C@H]1O[C@@H](Oc2cc3oc(-c4ccccc4)cc(=O)c3c(O)c2O)[C@H](O)[C@@H](O)[C@@H]1O [Baicalin] | > 100 µM | 0.718
2 | O=C(/C=C/c1ccc(O)c(O)c1)O[C@@H](C(=O)O)[C@@H](OC(=O)/C=C/c1ccc(O)c(O)c1)C(=O)O [Chicoric acid] | > 100 µM | 0.468
3 | O=C(/C=C/c1ccccc1)NC(NC(=S)Nc1cccc2cccnc12)C(Cl)(Cl)Cl (centres undefined) [Salubrinal] | > 100 µM | 0.377
4 | CCCCN(CCCC)CC(O)c1cc(Cl)cc2c1-c1ccc(Cl)cc1/C2=C/c1ccc(Cl)cc1 (centres undefined) [Lumefantrine] | > 100 µM | 0.218
5 | CC(C)(C)[C@@H]1NC(=O)O[C@@H]2CCC[C@H]2OC/C=C/C(F)(F)c2nc3ccccc3nc2O[C@@H]2C[C@@H](C(=O)N[C@]3(C(=O)NS(=O)(=O)C4(C)CC4)C[C@H]3C(F)F)N(C2)C1=O [Glecaprevir] | > 100 µM | 0.369
6 | O=C1CCC[C@@H]2[C@H]3CCC[N+]4([O-])CCC[C@@H](CN12)[C@@H]34 (some centres undefined) [Oxymatrine] | > 100 µM | 0.187
7 | Nc1nc(=O)c2ncn(CCC(CO)CO)c2[nH]1 [Penciclovir] | > 100 µM | 0.126
8 | CC(C)[C@H](NC(=O)c1ccc2ccccc2n1)C(=O)N[C@@H](CC(=O)O)C(=O)COc1c(F)cccc1F [Q-VD-OPH] | > 100 µM | 0.221
9 | OC[C@H]1OC(O)C[C@@H](O)[C@@H]1O (stereo partly drawn) [2-deoxy-D-Glucose] | > 100 µM | 0.325
10 | COc1cc2c(cc1OC)CN(CCc1ccc(NC(=O)c3cccc4c(=O)c5cccc(OC)c5[nH]c34)cc1)CC2 [Elacridar] | > 100 µM | 0.592
11 | CO[C@@H]1[C@H](OC(=O)/C=C/C=C/C=C/C=C/C(=O)O)CC[C@]2(CO2)[C@H]1[C@@]1(C)O[C@@H]1CC=C(C)C [Fumagillin] | > 100 µM | 0.187
12 | Cc1cn([C@H]2C[C@H](N=[N+]=[N-])[C@@H](CO)O2)c(=O)[nH]c1=O [Zidovudine] | > 100 µM | 0.17
13 | COC(=O)N[C@H](C(=O)N1CCC[C@H]1c1ncc(-c2ccc(-c3ccc(-c4cnc([C@@H]5CCCN5C(=O)[C@@H](NC(=O)OC)C(C)C)[nH]4)cc3)cc2)[nH]1)C(C)C [Daclatasvir] | > 100 µM | 0.208
14 | Oc1cc(O)cc(/C=C/c2ccc(O)cc2O)c1 [Oxyresveratrol] | > 100 µM | 0.673
15 | O=C(/C=C/c1ccc(O)c(O)c1)O[C@H]1[C@H](O)C[C@](O)(C(=O)O)C[C@H]1OC(=O)/C=C/c1ccc(O)c(O)c1 [4,5-Dicaffeoylquinic acid] | > 100 µM | 0.542
16 | CC(C)C[C@H](NC(=O)[C@@H](NC(=O)N[C@@H](Cc1ccccc1)C(=O)O)C1CCNC(=N)N1)C(=O)N[C@H](C=O)Cc1ccccc1 (some centres undefined) [Chymostatin] | > 100 µM | 0.19
17 | CCCCCCOC(=O)NC(=N)c1ccc(NCc2nc3cc(C(=O)N(CCC(=O)OCC)c4ccccn4)ccc3n2C)cc1 [Dabigatran etexilate] | > 100 µM | 0.832
18 | O=c1[nH]cc(F)c(=O)[nH]1 [5-Fluorouracil] | > 100 µM | 0.159
19 | CCCCc1nc(Cl)c(C=O)n1Cc1ccc(-c2ccccc2-c2nnn[nH]2)cc1 [Losartan carboxaldehyde] | > 100 µM | 0.293
20 | Cc1cc(O)c2c(c1)C(=O)c1cccc(O)c1C2=O [Chrysophanol] | > 100 µM | 0.288
21 | COc1cc(C(=O)NCc2ccc(OCCN(C)C)cc2)cc(OC)c1OC.Cl [Trimethobenzamide] | > 100 µM | 0.194

Row | Compound | BMC10 any morphological effect or mortality (Danio rerio embryo) | Cell Health Index (HL-60)
22 | Nc1nccc2c1ncn2[C@@H]1O[C@H](CO)[C@@H](O)[C@H]1O [3-Deazaadenosine] | > 100 µM | 0.318
23 | Cc1c(O)c(=O)ccn1C [Deferiprone] | > 100 µM | 0.256
24 | O=C(O)c1cc(O)c2c(c1)[C@H]([C@H]1c3cc(C(=O)O)cc(O)c3C(=O)c3c(O[C@@H]4O[C@H](CO)[C@@H](O)[C@H](O)[C@H]4O)cccc31)c1cccc(O[C@@H]3O[C@H](CO)[C@@H](O)[C@H](O)[C@H]3O)c1C2=O [Sennoside A] | > 100 µM | 0.422
25 | O=c1cc(-c2ccc(O)c(O)c2)oc2cc(O)cc(O)c12 [Luteolin] | > 100 µM | 0.54
26 | O=C1NC(=O)C(c2ccccc2)(c2ccccc2)N1 [Phenytoin] | > 100 µM | 0.193
27 | C[C@H]1[C@H](C)CC[C@]2(C(=O)O)CC[C@]3(C)C(=CC[C@@H]4[C@@]5(C)C[C@@H](O)[C@H](O)[C@@](C)(CO)[C@@H]5CC[C@]43C)[C@H]12 [Asiatic acid] | > 100 µM | 0.478
28 | COC(=O)N[C@H](C(=O)N[C@@H](Cc1ccccc1)[C@@H](O)CN(Cc1ccc(-c2ccccn2)cc1)NC(=O)[C@@H](NC(=O)OC)C(C)(C)C)C(C)(C)C [Atazanavir] | > 100 µM | 0.374
29 | O=C1O[C@@H]2[C@H]3OC(=O)c4cc(O)c(O)c(O)c4-c4c(cc(O)c(O)c4O)C(=O)OC[C@@H]2OC(OC(=O)c2cc(O)c(O)c(O)c2)[C@H]3OC(=O)c2cc(O)c(O)c3c2C2C1=CC(=O)C(O)(O3)C2(O)O (some centres undefined) [Geraniin] | > 100 µM | 0.824
30 | O=C(O)[C@H]1O[C@@H](Oc2cc3oc(-c4ccc(O)cc4)cc(=O)c3c(O)c2O)[C@H](O)[C@@H](O)[C@@H]1O [Scutellarin] | > 100 µM | 0.476
31 | CC(C)(C)C#Cc1cc(N(C(=O)[C@H]2CC[C@H](C)CC2)[C@H]2CC[C@@H](O)CC2)c(C(=O)O)s1 [Lomibuvir] | > 100 µM | 0.414
32 | Cc1nnnn1/N=C\c1ccc(O)c(C(c2ccc(O)cc2)c2cc(/C=N/n3nnnc3C)ccc2O)c1 (centres undefined) | > 100 µM | 0.389
33 | CC(C)CN(C[C@@H](O)[C@H](Cc1ccccc1)NC(=O)O[C@H]1CCOC1)S(=O)(=O)c1ccc(N)cc1 [Amprenavir] | > 100 µM | 0.181
34 | CC(C)(C)NC(=O)N[C@H](C(=O)N1C[C@H]2[C@@H]([C@H]1C(=O)NC(CC1CCC1)C(=O)C(N)=O)C2(C)C)C(C)(C)C (some centres undefined) [Boceprevir] | > 100 µM | 0.228
35 | CC(N)C12C[C@H]3C[C@@H](C1)C[C@@H](C2)C3.Cl (some centres undefined) [Rimantadine] | > 100 µM | 0.137
36 | CCCNC(=O)[C@H]1O[C@@H]1C(=O)N[C@H](C(=O)N1CCC[C@H]1C(=O)O)[C@@H](C)CC [CA-074] | > 100 µM | 0.179
37 | COC(=O)C1=CO[C@@H](O[C@@H]2O[C@H](CO)[C@@H](O)[C@H](O)[C@H]2O)[C@@H]2C(CO)=CC[C@H]12 [Geniposide] | > 100 µM | 0.251
38 | CCC(CC)COC(=O)[C@H](C)N[P@](=O)(OC[C@H]1O[C@@](C#N)(c2ccc3c(N)ncnn23)[C@H](O)[C@@H]1O)Oc1ccccc1 [Remdesivir] | > 100 µM | 0.275
39 | O=CC1OC(=O)c2cc(O)c(O)c(O)c2-c2c(cc(O)c(O)c2O)C(=O)OC1C1OC(=O)c2cc(O)c(O)c(O)c2-c2c(O)c(O)c3oc(=O)c4c(c(O)c(O)c5oc(=O)c2c3c54)-c2c(cc(O)c(O)c2O)C(=O)OCC1O (centres undefined) [Punicalagin] | > 100 µM | 0.837
40 | O=c1cc(-c2ccc(O)c(O)c2)oc2c([C@@H]3O[C@H](CO)[C@@H](O)[C@H](O)[C@H]3O)c(O)cc(O)c12 [Orientin] | > 100 µM | 0.337
41 | Nc1nc(=O)n([C@@H]2CS(=O)[C@H](CO)O2)cc1F (some centres undefined) [Emtricitabine S-oxide] | > 100 µM | 0.188
42 | O.Oc1cc(O)c2c(c1)O[C@H](c1ccc(O)c(O)c1)[C@@H](O)C2 (racemic) [(±)-Catechin] | > 100 µM | 0.804
